We go through four molecules from ChEMBL document CHEMBL5331135, “Design, Synthesis, and Evaluation of Glucose Transporter Inhibitor-SN38 Conjugates for Targeting Colorectal Cancer” (J Med Chem, 2023).

Each structure is given as a SMILES string.

Data set [1] deals with COLO 205. Briefly: Cytotoxicity against human COLO 205 cells incubated for 48 hrs by SRB assay. The class given is functional, cell-based. The note with it: COLO 205, 48 h.
Data set [2] can be described thus: Stability in human plasma assessed as half life by RP-HPLC analysis. The class given is ADME, cell-free.
For data set [3], the system named is HCT-116. The data set can be described thus: Cytotoxicity against human HCT-116 cells incubated for 48 hrs by SRB assay. The class given is functional, cell-based. The conditions noted are these: HCT-116, 48 h.
For data set [4], the system named is HT-29. The data set can be described thus: Cytotoxicity against human HT-29 cells incubated for 48 hrs by SRB assay. The class given is functional, cell-based. The conditions noted are these: HT-29, 48 h.
A short description of data set [5]: Toxicity in AOM/DSS-induced orthotopic CRC BALB/c mouse model assessed as lesions in liver at 13 mg/kg, iv administered once every 2 days for 2 weeks by H&E staining based analysis. The class given is organism-based. The note with it: in vivo, 336 h.
A short description of data set [6]: Antitumor activity against AOM/DSS-induced orthotopic CRC BALB/c mouse model assessed as reduction in tumor area at 13 mg/kg, iv administered once every 2 days for 2 weeks by dissecting microscopic analysis relative to control. The class given is functional, Colorectal cancer cell. Also on record: scale not given: the % may be the effect or the level left.
Data set [7] has as its system COLO 205. The data set can be described thus: Cytotoxicity against human COLO 205 cells incubated for 48 hrs in presence of SN38 by SRB assay. The conditions noted are these: COLO 205, 48 h. The class given is functional, cell-based.
The nature of data set [8]: Antitumor activity against AOM/DSS-induced orthotopic CRC BALB/c mouse model assessed as reduction in tumor area at 13 mg/kg, iv administered once every 2 days for 2 weeks in presence of SN38 by dissecting microscopic analysis relative to control. The class given is functional, Colorectal cancer cell. Also on record: scale not given: the % may be the effect or the level left.

Data set [9] can be described thus: Toxicity in AOM/DSS-induced orthotopic CRC BALB/c mouse model assessed as lesions in kidney at 13 mg/kg, iv administered once every 2 days for 2 weeks by H&E staining based analysis. The class given is organism-based. The note with it: in vivo, 336 h.
Data set [10] can be described thus: Toxicity in AOM/DSS-induced orthotopic CRC BALB/c mouse model assessed as lesions in lung at 13 mg/kg, iv administered once every 2 days for 2 weeks by H&E staining based analysis. The class given is organism-based. The note with it: in vivo, 336 h.
Data set [11] can be described thus: Toxicity in AOM/DSS-induced orthotopic CRC BALB/c mouse model assessed as body weight loss at 14 mg/kg, ip administered every other day for 2 weeks in presence of Irinotecan. The class given is organism-based. The note with it: in vivo, 336 h.
A short description of data set [12]: Toxicity in AOM/DSS-induced orthotopic CRC BALB/c mouse model assessed as lesions in stomach at 13 mg/kg, iv administered once every 2 days for 2 weeks by H&E staining based analysis. The class given is organism-based. The conditions noted are these: in vivo, 336 h.
Data set [13] relates to HCT-116. Briefly: Cytotoxicity against human HCT-116 cells incubated for 48 hrs in presence of SN38 by SRB assay. The class given is functional, cell-based. The conditions noted are these: HCT-116, 48 h.
Data set [14] deals with HT-29. Briefly: Cytotoxicity against human HT-29 cells incubated for 48 hrs in presence of SN38 by SRB assay. The conditions noted are these: HT-29, 48 h. The class given is functional, cell-based.
Data set [15] can be described thus: Toxicity in AOM/DSS-induced orthotopic CRC BALB/c mouse model assessed as body weight loss at 13 mg/kg, iv administered once every 2 days for 2 weeks. The class given is organism-based. The note with it: in vivo, 336 h.
The nature of data set [16]: Toxicity in AOM/DSS-induced orthotopic CRC BALB/c mouse model assessed as lesions in heart at 13 mg/kg, iv administered once every 2 days for 2 weeks by H&E staining based analysis. The note with it: in vivo, 336 h. The class given is organism-based.
Data set [17] can be described thus: Toxicity in AOM/DSS-induced orthotopic CRC BALB/c mouse model assessed as lesions in spleen at 13 mg/kg, iv administered once every 2 days for 2 weeks by H&E staining based analysis. The class given is organism-based. The conditions noted are these: in vivo, 336 h.

For the molecule `CCc1c2c(nc3ccc(OC(=O)OCCSSCCOCCOCCOc4cc(O)c(C(=O)CCc5ccc(O)cc5)c(O[C@@H]5O[C@H](CO)[C@@H](O)[C@H](O)[C@H]5O)c4)cc13)-c1cc3c(c(=O)n1C2)COC(=O)[C@]3(O)CC`, the concentration for half-maximal inhibition (IC50) in data set [1] came out at 640 nM; in data set [3], 42.3 nM; in data set [4] it was 510 nM. Besides, the half-life in [2] was 20 min.

For `O=C(CCc1ccc(O)cc1)c1c(O)cc(O)cc1O[C@@H]1O[C@H](CO)[C@@H](O)[C@H](O)[C@H]1O` [PHLORIZIN], the half-inhibitory concentration (IC50) in data set [1], in [3] and in data set [4] was above 100000 nM each time.

On to `O=C(CCc1ccc(O)cc1)c1c(O)cc(OCCOCCOCCS)cc1O`, for which the Activity entry in data set [5] is listed as “Non-Toxic”; in data set [6], 35%; in data set [8] it was 55%; in [9], “Non-Toxic”; in data set [10], “Non-Toxic”; in data set [11] it was “Non-Toxic”. Further, the Activity result in data set [12], in [15], in data set [16] and in data set [17] was “Non-Toxic” in each case. The IC50 in data set [1] was above 100000 nM; in data set [7] it was 150 nM; in data set [13] it was 56.5 nM; in [14], 360 nM.

For the molecule `CCc1c2c(nc3ccc(O)cc13)-c1cc3c(c(=O)n1C2)COC(=O)[C@]3(O)CC` [7-ETHYL-10-HYDROXYCAMPTOTHECIN], the IC50 in data set [1] was 0.75 nM; in data set [3] it was 54.9 nM; in data set [4], 430 nM.
